This note sets out measurements from PubChem BioAssay (NCI).

Where “and” joins values, the source holds several entries; their conditions need not be identical. Equal entries are not always repeated.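 Step 1: Grow cells in 96-well plates. Step 2: Expose to compound for 48 hours at 5 concentrations. Step 3: Interpolate endpoints linearly; if unreached, use highest concentration. Here, GI50 denotes the concentration required for 50% inhibition of growth. TGI is the concentration that stops growth completely.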

The first assay deals with NCI-H226 lung. Description: growth of human tumour cells (NCI), 48 h.
With `O=C(Nc1ccccc1)NS(=O)(=O)c1ccc(-n2nc3c(c2-c2cccs2)Cc2ccccc2-3)cc1`, the GI50 was 19.2 µM and the TGI is 59 µM.

In the case of `CCCCCN(CCCCC)CC(O)c1cc(C)c2ccc3cc(C(C)C)ccc3c2c1` (configuration not stated), the GI50 was 1.85 µM and the TGI is 3.97 µM.

Consider `CC1=C(C(=O)Nc2ccc(Cl)c(Cl)c2)C(c2cccc(Oc3ccccc3)c2)NC(=S)N1` (configuration not stated), for which the GI50 is 9.68 µM and the TGI turned out to be 19.5 µM.

Regarding `CSc1nc2c(c(=O)[nH]1)N=C1c3ccccc3C(=O)C1C(c1ccccc1)N2` (configuration not stated), the GI50 is 4.2 µM and the TGI was over 100 µM.

As for `C=C(CN1CCN(c2ccc(Cl)cc2F)CC1)c1ccc(C(=O)Nc2ccccc2N)cc1`, the GI50 was 3.29 µM and the TGI was over 100 µM.

In turn, `CCCCC(=O)OCC(=O)[C@]1(O)Cc2c(O)c3c(c(O)c2[C@@H](OC2CC(NC(=O)C(F)(F)F)C(O)C(C)O2)C1)C(=O)c1c(OC)cccc1C3=O` (some centres not stated) displayed a TGI of 0.192 µM.

In turn, `CCN(CCO)CC1CCCC2CCCCC21` (configuration not stated) displayed a TGI of over 100 µM.

On to `NC(Cc1c[nH]c2c(O)cccc12)C(=O)O` (configuration not stated), for which the GI50 is over 100 µM and the TGI is over 100 µM.

With `CCCCOC(=O)C1OC(O[C@H]2CCC3(C)C(CCC4(C)C3CC=C3C5CC(C)(C)CCC5(C(=O)O)CC[C@]34C)C2(C)C)C(OC2OC(CO)C(O)C(O)C2O)C(OC2OC(CO)C(O)C(O)C2O)C1O` (some centres not stated), the GI50 was 29.2 µM and the TGI turned out to be 66.1 µM.

For the compound `Cn1cc(C2=C(c3cn(C)c4ncccc34)C(=O)NC2=O)c2ccccc21`, the GI50 was 5.45 µM and the TGI turned out to be 16.5 µM.

`NNC(=O)Nc1cccnc1` gave a TGI of over 100 µM.

As for `C#Cc1ccc(-n2c(/C=C/c3ccc(C(F)(F)F)cc3)nc3ncccc3c2=O)cc1`, the GI50 was 1.99 µM and the TGI amounted to 4.09 µM.

Regarding `CCCCCN(CCCCC)CCCNc1c2c(nc3ccc(Cl)cc13)CCCC2`, the GI50 was 2.05 µM and the TGI was determined as 6.71 µM.

`C=C1C(=O)C23CC1CCC2C12CO[C@@H]4OCC(C)(CC[C@@H]1OC3=O)C42` (some centres not stated) gave a TGI of 38.4 µM.

Compound `CN/N=C(/Cc1occc(=O)c1O)C(=O)Nc1ccccc1C` came in with a TGI of over 100 µM.

For another assay, the system named is NCI-H23 lung. Description: growth of human tumour cells (NCI), 48 h.
As to `CCOC(=O)[C@]1(OC(C)=O)C[C@H](OC(C)=O)[C@@H](C(F)COP(=O)(OCc2ccccc2)OCc2ccccc2)O1` (some centres not stated), the GI50 was 48.9 µM and > 100 µM; the TGI was over 100 µM.

Take `CC[C@@]1(O)C[C@H](OC2CC(N(C)C)C(O)C(C)O2)c2c(O)c3c(c(O)c2[C@H]1OC1CC(N(C)C)C(O)C(C)O1)C(=O)c1cccc(O)c1C3=O` (some centres not stated): the GI50 is under 0.01 µM.

`CC1(C)CCc2c(c3c(c4c(=O)c(O)c(-c5ccc(O)cc5)oc24)OC(C)(C)CC3)O1`: the GI50 is 75.7 µM and the TGI is over 100 µM.

Consider `O=C(Nc1ccccc1)NS(=O)(=O)c1ccc(-n2nc3c(c2-c2cccs2)Cc2ccccc2-3)cc1`, for which the GI50 was 12.2 µM and the TGI amounted to 29.6 µM.

For the compound `CCCCCN(CCCCC)CC(O)c1cc(C)c2ccc3cc(C(C)C)ccc3c2c1` (configuration not stated), the GI50 was 1.77 µM and the TGI stood at 3.4 µM.

As for `CSc1nc2c(c(=O)[nH]1)N=C1c3ccccc3C(=O)C1C(c1ccccc1)N2` (configuration not stated), the GI50 was 5.82 µM and the TGI is over 100 µM.

On to `C=C(CN1CCN(c2ccc(Cl)cc2F)CC1)c1ccc(C(=O)Nc2ccccc2N)cc1`, for which the GI50 was 3.13 µM and the TGI is over 100 µM.

With `CCCCC(=O)OCC(=O)[C@]1(O)Cc2c(O)c3c(c(O)c2[C@@H](OC2CC(NC(=O)C(F)(F)F)C(O)C(C)O2)C1)C(=O)c1c(OC)cccc1C3=O` (some centres not stated), the TGI came to 1.98 µM.

`CCN(CCO)CC1CCCC2CCCCC21` (configuration not stated) yielded a TGI of over 100 µM.

As for `NC(Cc1c[nH]c2c(O)cccc12)C(=O)O` (configuration not stated), the GI50 is over 100 µM and the TGI was over 100 µM.

Regarding `CCCCOC(=O)C1OC(O[C@H]2CCC3(C)C(CCC4(C)C3CC=C3C5CC(C)(C)CCC5(C(=O)O)CC[C@]34C)C2(C)C)C(OC2OC(CO)C(O)C(O)C2O)C(OC2OC(CO)C(O)C(O)C2O)C1O` (some centres not stated), the GI50 is 22.8 µM and the TGI worked out at 47.6 µM.

Regarding `Cn1cc(C2=C(c3cn(C)c4ncccc34)C(=O)NC2=O)c2ccccc21`, the GI50 was 14.3 µM and the TGI is over 25 µM.

Turning to `NNC(=O)Nc1cccnc1`, the TGI is over 100 µM.

Take `C#Cc1ccc(-n2c(/C=C/c3ccc(C(F)(F)F)cc3)nc3ncccc3c2=O)cc1`: the GI50 was 3.9 µM and the TGI was 19 µM.

For the compound `CCCCCN(CCCCC)CCCNc1c2c(nc3ccc(Cl)cc13)CCCC2`, the GI50 is 2.12 µM and the TGI turned out to be 6.73 µM.

Regarding `C=C1C(=O)C23CC1CCC2C12CO[C@@H]4OCC(C)(CC[C@@H]1OC3=O)C42` (some centres not stated), the TGI came out at 16.6 µM.

Compound `CN/N=C(/Cc1occc(=O)c1O)C(=O)Nc1ccccc1C` gave a TGI of over 100 µM.

Another assay relates to PC-3 prostate. Description: growth of human tumour cells (NCI), 48 h.
For `CCOC(=O)[C@]1(OC(C)=O)C[C@H](OC(C)=O)[C@@H](C(F)COP(=O)(OCc2ccccc2)OCc2ccccc2)O1` (some centres not stated), the TGI is 88 µM and > 100 µM.

As for `CC[C@@]1(O)C[C@H](OC2CC(N(C)C)C(O)C(C)O2)c2c(O)c3c(c(O)c2[C@H]1OC1CC(N(C)C)C(O)C(C)O1)C(=O)c1cccc(O)c1C3=O` (some centres not stated), the GI50 was under 0.01 µM.

As to `CC1(C)CCc2c(c3c(c4c(=O)c(O)c(-c5ccc(O)cc5)oc24)OC(C)(C)CC3)O1`, the GI50 was over 100 µM and the TGI is over 100 µM.

Regarding `O=C(Nc1ccccc1)NS(=O)(=O)c1ccc(-n2nc3c(c2-c2cccs2)Cc2ccccc2-3)cc1`, the GI50 was 10.4 µM and the TGI was over 100 µM.

`CCCCCN(CCCCC)CC(O)c1cc(C)c2ccc3cc(C(C)C)ccc3c2c1` (configuration not stated): the GI50 was 1.59 µM and the TGI worked out at 3.08 µM.

On to `CC1=C(C(=O)Nc2ccc(Cl)c(Cl)c2)C(c2cccc(Oc3ccccc3)c2)NC(=S)N1` (configuration not stated), for which the GI50 was 9.71 µM and the TGI was 29.1 µM.

`CSc1nc2c(c(=O)[nH]1)N=C1c3ccccc3C(=O)C1C(c1ccccc1)N2` (configuration not stated): the GI50 was 3.64 µM and the TGI was over 100 µM.

`C=C(CN1CCN(c2ccc(Cl)cc2F)CC1)c1ccc(C(=O)Nc2ccccc2N)cc1`: the GI50 is 1.55 µM and the TGI is over 100 µM.
